Patent US20240109917A1 (ACTELION PHARMACEUTICALS LTD, priority 2020, published 2024)

What was measured:
[1] = molecular target: Tb-labeled inactive PDGFRβ (Homo sapiens (Human), UniProt P09619); assay: PDGFRβ LanthaScreen Assay; type: binding; details: read-out: PDGFR Lantha IC50
VEGFR2, unphosphorylated = VEGFR2, unphosphorylated (Homo sapiens (Human), UniProt P35968); assay: VEGFR ADP GLO Assay; type: biochemical
Chain of VEGFR2, unphosphorylated (P35968 20-1356): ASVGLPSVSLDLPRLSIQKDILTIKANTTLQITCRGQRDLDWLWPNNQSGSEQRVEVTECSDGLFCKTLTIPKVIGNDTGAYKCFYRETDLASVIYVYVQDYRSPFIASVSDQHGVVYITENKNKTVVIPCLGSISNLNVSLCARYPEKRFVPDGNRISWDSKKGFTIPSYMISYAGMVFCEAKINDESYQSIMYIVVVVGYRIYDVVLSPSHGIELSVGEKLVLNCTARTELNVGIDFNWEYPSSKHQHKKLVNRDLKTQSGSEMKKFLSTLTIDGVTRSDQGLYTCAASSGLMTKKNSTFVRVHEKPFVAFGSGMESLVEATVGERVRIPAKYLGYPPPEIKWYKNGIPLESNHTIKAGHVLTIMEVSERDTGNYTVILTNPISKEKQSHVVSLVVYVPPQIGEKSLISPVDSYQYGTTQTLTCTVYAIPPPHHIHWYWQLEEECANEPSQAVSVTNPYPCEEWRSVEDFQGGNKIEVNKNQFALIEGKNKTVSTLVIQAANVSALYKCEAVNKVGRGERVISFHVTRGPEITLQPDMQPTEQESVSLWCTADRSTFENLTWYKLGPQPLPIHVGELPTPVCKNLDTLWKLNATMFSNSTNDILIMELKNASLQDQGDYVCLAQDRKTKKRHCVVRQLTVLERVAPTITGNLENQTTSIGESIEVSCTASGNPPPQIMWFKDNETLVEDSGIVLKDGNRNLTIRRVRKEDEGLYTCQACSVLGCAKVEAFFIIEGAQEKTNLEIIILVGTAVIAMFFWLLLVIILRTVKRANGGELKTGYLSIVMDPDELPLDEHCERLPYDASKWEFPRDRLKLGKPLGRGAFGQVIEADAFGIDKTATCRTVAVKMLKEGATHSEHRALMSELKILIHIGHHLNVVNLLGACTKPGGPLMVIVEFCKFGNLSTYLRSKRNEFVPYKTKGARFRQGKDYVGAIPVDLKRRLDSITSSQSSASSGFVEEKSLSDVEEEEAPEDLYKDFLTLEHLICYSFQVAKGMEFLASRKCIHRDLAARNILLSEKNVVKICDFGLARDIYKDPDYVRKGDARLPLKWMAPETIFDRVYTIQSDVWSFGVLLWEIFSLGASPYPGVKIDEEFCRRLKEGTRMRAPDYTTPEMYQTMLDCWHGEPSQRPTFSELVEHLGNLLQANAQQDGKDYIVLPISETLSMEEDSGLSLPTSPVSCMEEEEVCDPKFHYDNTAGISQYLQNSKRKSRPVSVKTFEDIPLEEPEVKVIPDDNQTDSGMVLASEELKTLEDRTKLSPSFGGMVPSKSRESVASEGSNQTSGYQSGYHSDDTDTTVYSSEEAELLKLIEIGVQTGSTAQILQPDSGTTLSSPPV

Chain of Tb-labeled inactive PDGFRβ (P09619 33-1106): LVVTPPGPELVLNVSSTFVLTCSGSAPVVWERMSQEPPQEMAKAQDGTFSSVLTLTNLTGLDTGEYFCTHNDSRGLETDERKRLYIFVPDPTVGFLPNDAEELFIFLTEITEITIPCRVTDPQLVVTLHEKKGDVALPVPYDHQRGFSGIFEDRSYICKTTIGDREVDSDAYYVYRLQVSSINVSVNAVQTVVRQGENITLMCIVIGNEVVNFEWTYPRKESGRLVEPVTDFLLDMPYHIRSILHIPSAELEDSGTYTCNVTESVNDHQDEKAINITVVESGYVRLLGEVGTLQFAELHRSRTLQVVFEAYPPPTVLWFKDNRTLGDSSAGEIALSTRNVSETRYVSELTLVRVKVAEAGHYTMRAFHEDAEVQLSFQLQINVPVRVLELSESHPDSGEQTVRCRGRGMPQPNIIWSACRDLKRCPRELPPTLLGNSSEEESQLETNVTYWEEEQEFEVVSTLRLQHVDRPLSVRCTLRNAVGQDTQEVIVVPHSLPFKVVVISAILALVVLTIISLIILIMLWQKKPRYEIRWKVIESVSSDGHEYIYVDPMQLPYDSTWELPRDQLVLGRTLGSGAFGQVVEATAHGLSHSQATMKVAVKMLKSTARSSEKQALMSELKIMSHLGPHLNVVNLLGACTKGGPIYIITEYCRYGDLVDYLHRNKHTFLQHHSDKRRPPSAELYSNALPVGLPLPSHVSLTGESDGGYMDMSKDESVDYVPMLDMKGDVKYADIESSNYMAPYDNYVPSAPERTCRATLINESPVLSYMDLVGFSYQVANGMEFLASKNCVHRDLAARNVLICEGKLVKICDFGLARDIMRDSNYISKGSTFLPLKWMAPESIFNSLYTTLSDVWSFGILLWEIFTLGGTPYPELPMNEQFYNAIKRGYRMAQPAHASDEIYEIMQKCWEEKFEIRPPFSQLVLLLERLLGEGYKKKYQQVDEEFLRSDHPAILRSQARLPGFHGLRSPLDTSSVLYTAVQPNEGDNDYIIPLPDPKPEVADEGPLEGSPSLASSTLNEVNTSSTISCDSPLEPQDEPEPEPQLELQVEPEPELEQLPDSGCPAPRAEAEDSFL

Cc1ncc(NC(=O)CC23CCCN2CCC3)cc1NC(=O)c1cnn2cc(-c3cnn(C)c3)sc12 [Example 302, 2-(1-methyl-1H-pyrazol-4-yl)-N-(2-methyl-5-(2-(tetrahydro-1H-pyrrolizin-7a(5H)-yl)acetamido)pyridin-3-yl)pyrazolo[5,1-b]thiazole-7-carboxamide]
IC50 [1]: 61.2 nM | IC50 (VEGFR2, unphosphorylated): > 7500 nM

COc1ncccc1-c1cn2ncc(C(=O)Nc3cc(NC(=O)CN4CCC5(CCOC5)C4)cnc3C)c2s1 (centres unmarked) [Example 320, N-(5-(2-(2-oxa-7-azaspiro[4.4]nonan-7-yl)acetamido)-2-methylpyridin-3-yl)-2-(2-methoxypyridin-3-yl)pyrazolo[5,1-b]thiazole-7-carboxamide]
IC50 [1]: 1.4 nM | IC50 (VEGFR2, unphosphorylated): > 7500 nM

Cc1ncc(NC(=O)CC(C)N2CCCCC2)cc1NC(=O)c1cnn2cc(-c3cnn(C)c3)sc12 (centres unmarked) [Example 307, 2-(1-methyl-1H-pyrazol-4-yl)-N-(2-methyl-5-(3-(piperidin-1-yl)butanamido)pyridin-3-yl)pyrazolo[5,1-b]thiazole-7-carboxamide]
IC50 [1]: 210 nM | IC50 (VEGFR2, unphosphorylated): > 7500 nM

COc1ncccc1-c1cn2ncc(C(=O)Nc3cc(NC(=O)CN4CCO[C@H](C)C4)cnc3C)c2s1 [Example 318, (R)-2-(2-methoxypyridin-3-yl)-N-(2-methyl-5-(2-(2-methylmorpholino)acetamido)pyridin-3-yl)pyrazolo[5,1-b]thiazole-7-carboxamide]
IC50 [1]: 1.9 nM | IC50 (VEGFR2, unphosphorylated): > 7500 nM

Cc1ncc(NC(=O)CN2CC(C)(C)C2)cc1NC(=O)c1cnn2cc(-c3cn[nH]c3)sc12 [Example 271, N-(5-(2-(3,3-dimethylazetidin-1-yl)acetamido)-2-methylpyridin-3-yl)-2-(1H-pyrazol-4-yl)pyrazolo[5,1-b]thiazole-7-carboxamide]
IC50 [1]: 2.8 nM | IC50 (VEGFR2, unphosphorylated): 5930 nM

Cc1ncc(NC(=O)CN2CC(C)(C)C2)cc1NC(=O)c1cnn2cc(-c3cnn(C(F)(F)F)c3)sc12 [Example 269, N-(5-(2-(3,3-dimethylazetidin-1-yl)acetamido)-2-methylpyridin-3-yl)-2-(1-(trifluoromethyl)-1H-pyrazol-4-yl)pyrazolo[5,1-b]thiazole-7-carboxamide]
IC50 [1]: 71.2 nM | IC50 (VEGFR2, unphosphorylated): > 7500 nM

Cc1ncc(NC(=O)CN2CC(C)(C)C2)cc1NC(=O)c1cnn2cc(-c3cnn(CC4CC4)c3)sc12 [Example 270, 2-(1-(cyclopropylmethyl)-1H-pyrazol-4-yl)-N-(5-(2-(3,3-dimethylazetidin-1-yl)acetamido)-2-methylpyridin-3-yl)pyrazolo[5,1-b]thiazole-7-carboxamide]
IC50 [1]: 5.4 nM | IC50 (VEGFR2, unphosphorylated): > 7500 nM

Cc1ncc(NC(=O)CN2CC(C)(C)C2)cc1NC(=O)c1cnn2cc(-c3ccc(C4(O)COC4)cc3)sc12 [Example 272, N-(5-(2-(3,3-dimethylazetidin-1-yl)acetamido)-2-methylpyridin-3-yl)-2-(4-(3-hydroxyoxetan-3-yl)phenyl)pyrazolo[5,1-b]thiazole-7-carboxamide]
IC50 [1]: 1.4 nM | IC50 (VEGFR2, unphosphorylated): > 7500 nM

CC(=O)Nc1cc(-c2cn3ncc(C(=O)Nc4cc(NC(=O)CN5CC(C)(C)C5)cnc4C)c3s2)ccn1 [Example 273, 2-(2-acetamidopyridin-4-yl)-N-(5-(2-(3,3-dimethylazetidin-1-yl)acetamido)-2-methylpyridin-3-yl)pyrazolo[5,1-b]thiazole-7-carboxamide]
IC50 [1]: 3.6 nM | IC50 (VEGFR2, unphosphorylated): > 7500 nM

Cc1ncc(NC(=O)CN2CC(C)(C)C2)cc1NC(=O)c1cnn2cc(-c3ccnc(N4CCOCC4)c3)sc12 [Example 284, N-(5-(2-(3,3-dimethylazetidin-1-yl)acetamido)-2-methylpyridin-3-yl)-2-(2-morpholinopyridin-4-yl)pyrazolo[5,1-b]thiazole-7-carboxamide]
IC50 [1]: 2.6 nM | IC50 (VEGFR2, unphosphorylated): > 7500 nM

Cc1ncc(NC(=O)CN2CCC3(CCOC3)C2)cc1NC(=O)c1cnn2cc(-c3cnn(C)c3)sc12 (centres unmarked) [Example 19, N-(5-(2-(2-oxa-7-azaspiro[4.4]nonan-7-yl)acetamido)-2-methylpyridin-3-yl)-2-(1-methyl-1H-pyrazol-4-yl)pyrazolo[5,1-b]thiazole-7-carboxamide]
IC50 [1]: 4.2 nM | IC50 (VEGFR2, unphosphorylated): > 7500 nM

Cc1ncc(NC(=O)C[C@@H]2CCCN2C(C)C)cc1NC(=O)c1cnn2cc(-c3cccnc3O)sc12 [Example 322, (S)-2-(2-hydroxypyridin-3-yl)-N-(5-(2-(1-isopropylpyrrolidin-2-yl)acetamido)-2-methylpyridin-3-yl)pyrazolo[5,1-b]thiazole-7-carboxamide]
IC50 [1]: 15.5 nM | IC50 (VEGFR2, unphosphorylated): > 7500 nM

Cc1ncc(NC(=O)CN2CCCC(O)C2)cc1NC(=O)c1cnn2cc(-c3cnn(C)c3)sc12 (centres unmarked) [Example 303, N-(5-(2-(3-hydroxypiperidin-1-yl)acetamido)-2-methylpyridin-3-yl)-2-(1-methyl-1H-pyrazol-4-yl)pyrazolo[5,1-b]thiazole-7-carboxamide]
IC50 [1]: 5.8 nM | IC50 (VEGFR2, unphosphorylated): > 7500 nM

COc1ncccc1-c1cn2ncc(C(=O)Nc3cc(NC(=O)CN4CCOC(C)(C)C4)cnc3C)c2s1 [Example 319, N-(5-(2-(2,2-dimethylmorpholino)acetamido)-2-methylpyridin-3-yl)-2-(2-methoxypyridin-3-yl)pyrazolo[5,1-b]thiazole-7-carboxamide]
IC50 [1]: 1.8 nM | IC50 (VEGFR2, unphosphorylated): > 7500 nM

Cc1ncc(NC(=O)[C@@H]2C[C@@H](C)CN2C)cc1NC(=O)c1cnn2cc(-c3cnn(C)c3)sc12 [Example 304, N-(5-((2S,4R)-1,4-dimethylpyrrolidine-2-carboxamido)-2-methylpyridin-3-yl)-2-(1-methyl-1H-pyrazol-4-yl)pyrazolo[5,1-b]thiazole-7-carboxamide]
IC50 [1]: 5.6 nM | IC50 (VEGFR2, unphosphorylated): > 7500 nM

COCCn1cc(-c2cn3ncc(C(=O)Nc4cc(NC(=O)CN5CCC[C@@H]5C)cnc4C)c3s2)cn1 [Example 325, (S)-2-(1-(2-methoxyethyl)-1H-pyrazol-4-yl)-N-(2-methyl-5-(2-(2-methylpyrrolidin-1-yl)acetamido)pyridin-3-yl)pyrazolo[5,1-b]thiazole-7-carboxamide]
IC50 [1]: 16.3 nM | IC50 (VEGFR2, unphosphorylated): > 7500 nM

Cc1ncc(NC(=O)CN2CC(C)(C)C2)cc1NC(=O)c1cnn2cc(-c3cnn(CC(N)=O)c3)sc12 [Example 267, 2-(1-(2-amino-2-oxoethyl)-1H-pyrazol-4-yl)-N-(5-(2-(3,3-dimethylazetidin-1-yl)acetamido)-2-methylpyridin-3-yl)pyrazolo[5,1-b]thiazole-7-carboxamide]
IC50 [1]: 13.7 nM | IC50 (VEGFR2, unphosphorylated): > 7500 nM

Cc1ncc(NC(=O)CN(C)C2CCOCC2)cc1NC(=O)c1cnn2cc(-c3cnn(C4CCC4)c3)sc12 [Example 296, 2-(1-cyclobutyl-1H-pyrazol-4-yl)-N-(2-methyl-5-(2-(methyl(tetrahydro-2H-pyran-4-yl)amino)acetamido)pyridin-3-yl)pyrazolo[5,1-b]thiazole-7-carboxamide]
IC50 [1]: 3.7 nM | IC50 (VEGFR2, unphosphorylated): > 7500 nM

CC(=O)Nc1cncc(-c2cn3ncc(C(=O)Nc4cc(NC(=O)CN5CC(C)(C)C5)cnc4C)c3s2)c1 [Example 277, 2-(5-acetamidopyridin-3-yl)-N-(5-(2-(3,3-dimethylazetidin-1-yl)acetamido)-2-methylpyridin-3-yl)pyrazolo[5,1-b]thiazole-7-carboxamide]
IC50 [1]: 5.7 nM | IC50 (VEGFR2, unphosphorylated): > 2500 nM
